The text below walks through data of patent US8338611B2, “Opioid receptor antagonists” (Eli Lilly and Company, priority 2004, dated 2012).

The term Ki denotes a dissociation constant, usually derived from enzyme kinetics or from competition with a known ligand.

Common to all, as to assay type: biochemical
Assay [1] deals with T1, cloned human delta opioid receptor (Homo sapiens, UniProt P41143).
T1 construct: expressed in transfected cells
Briefly: GTP-γ-S Binding Assay, delta opioid receptor (Table 1: Receptor Binding). Particulars: membranes from cells expressing cloned human delta receptor. As for the experimental part:
The functional antagonist potency (Kb) of the sample compounds was determined using the GTPγS binding assay. GTPgS-based functional assays provide an in vitro measure of the activity of opioid agonists and antagonists. Opioid reference compounds or test compound are incubated with membrane homogenate from cells expressing the cloned human mu, kappa or delta opioid receptor and radiolabeled [35S]GTPgS. If the compound activates the opioid receptor, an increase in the binding of radiolabeled GTPgS is observed. […] These tests provide an in vitro measurement of the activity of the compound at human opioid receptors. GTP-γ-S Binding Assay
An SPA-based GTP-γ-S assay format was developed based on previous opioid (Emmerson et al., J. Pharm Exp Ther 278, 1121, 1996; Horng et al., Society for Neuroscience Abstracts, 434.6, 2000) and muscarinic (DeLapp et al., JPET 289, 946, 1999) assay formats. Membranes were resuspended in 20 mM HEPES, 100 mM NaCl, 5 mM MgCl2, 1 mM DTT, and 1 mM EDTA. Fifty (50) […], of GTP-γ-[35S], compound; membrane suspension (20 microgram/well), and wheat germ agglutinin coated SPA beads (1 mg/well) were added to clear bottom 96 well assay plates. GDP ([…]) was added to the membrane solution prior to addition to the assay plates. Plates were sealed and incubated for four hours at room temperature then placed in a refrigerator overnight to allow the beads to settle. Signal stability at 4° C. was determined to be >6O hours. Plates were warmed to room temperature and counted in a Wallac Microbeta scintillation counter. For antagonist assays, specific agonists were added at the following concentrations: (MOR) DAMGO 1 micromolar, (DOR) DPDPE 30 nM, (KOR) U69593 300 nM. Kb's were determined by Cheng-Prusoff equation (see Cheng and Prusoff, Biochem. Pharmacol. 22, 3099, 1973).

For assay [2], the target named is T2, cloned human mu opioid receptor (Homo sapiens, UniProt P35372).
T2 construct: expressed in transfected cells
T2 sequence (P35372 whole entry): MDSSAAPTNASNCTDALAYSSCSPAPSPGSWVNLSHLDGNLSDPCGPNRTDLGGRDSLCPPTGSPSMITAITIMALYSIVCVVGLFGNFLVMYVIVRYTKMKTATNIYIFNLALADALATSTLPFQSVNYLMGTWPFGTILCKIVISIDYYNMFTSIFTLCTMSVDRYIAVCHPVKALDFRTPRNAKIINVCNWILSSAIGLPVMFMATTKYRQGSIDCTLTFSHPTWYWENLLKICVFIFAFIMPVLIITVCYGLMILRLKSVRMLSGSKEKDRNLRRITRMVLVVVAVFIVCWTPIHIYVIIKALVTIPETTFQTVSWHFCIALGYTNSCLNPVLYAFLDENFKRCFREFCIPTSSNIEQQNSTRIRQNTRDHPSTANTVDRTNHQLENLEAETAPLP
In words: GTP-γ-S Binding Assay, mu opioid receptor (Table 1: Receptor Binding). Particulars: membranes from cells expressing cloned human mu receptor.

In assay [3] the target is T3, cloned human kappa opioid receptor (Homo sapiens, UniProt P41145).
T3 construct: expressed in transfected cells
T3 sequence (P41145 whole entry): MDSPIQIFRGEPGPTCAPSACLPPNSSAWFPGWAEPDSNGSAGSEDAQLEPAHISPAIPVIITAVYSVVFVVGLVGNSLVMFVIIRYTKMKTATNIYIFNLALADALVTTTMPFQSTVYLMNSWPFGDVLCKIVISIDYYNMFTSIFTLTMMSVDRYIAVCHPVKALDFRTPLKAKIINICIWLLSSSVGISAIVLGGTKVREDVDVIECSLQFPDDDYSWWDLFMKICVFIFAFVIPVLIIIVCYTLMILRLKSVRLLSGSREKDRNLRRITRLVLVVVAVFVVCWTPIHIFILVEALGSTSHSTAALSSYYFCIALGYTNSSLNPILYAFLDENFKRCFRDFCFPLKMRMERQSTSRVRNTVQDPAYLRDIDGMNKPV
Briefly: GTP-γ-S Binding Assay, kappa opioid receptor (Table 1: Receptor Binding). Particulars: membranes from cells expressing cloned human kappa receptor.

The mark [4] stands for this setting: read-out: Receptor Binding (Ki, nM) Mu.

Several values for one entry are separate records, joined by “and”; a condition that tells them apart may be missing. Equal entries are not always repeated. Where two headings read alike, the source gives them in different places. Bounds are passed on as bounds.

T1 sequence (P41143 whole entry): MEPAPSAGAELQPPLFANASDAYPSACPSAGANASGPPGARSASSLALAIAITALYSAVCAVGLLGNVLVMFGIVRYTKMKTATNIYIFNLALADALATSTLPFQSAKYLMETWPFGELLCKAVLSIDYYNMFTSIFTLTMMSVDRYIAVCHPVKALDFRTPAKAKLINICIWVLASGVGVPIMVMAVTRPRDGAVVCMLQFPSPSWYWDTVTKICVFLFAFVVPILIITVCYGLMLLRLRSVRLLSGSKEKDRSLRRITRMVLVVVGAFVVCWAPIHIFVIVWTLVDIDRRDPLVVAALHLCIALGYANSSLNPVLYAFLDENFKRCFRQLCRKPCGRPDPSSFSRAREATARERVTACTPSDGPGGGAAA

With “6-{4-[(2-Pyridin-4-yl-ethylamino)-methyl]-phenylsulfanyl}-nicotinamide [Example 19]”, the Ki came out at 858 nM in assay [1], 107 nM in assay [2] (setting [4]) and 137 nM in assay [3].

`CC(=O)c1ccc(Oc2ccc(CCNCc3ccccc3)cc2)cc1` [Example 5, 1-{4-[4-(2-Benzylamino-ethyl)-phenoxy]-phenyl}-ethanone]: the Ki in assay [1] is over 5000 nM; in assay [2] (setting [4]) it was 1310 nM; in assay [3], over 5000 nM.

On to `CC(=O)Oc1ccc(Oc2ccc(CCNCc3ccccc3)cc2)cc1` [Example 6, Acetic acid 4-[4-(2-benzylamino-ethyl)-phenoxy]phenyl ester], for which the Ki was found to be 3250 nM in assay [1], 229 nM in assay [2] (setting [4]) and 1620 nM in assay [3].

Take `NC(=O)c1ccc(Sc2ccc(CNCC3CC3)cc2)nc1` [Example 10, 6-{4-[(Cyclopropylmethyl-amino)-methyl]-phenylsulfanyl}-nicotinamide]: the Ki is 3040 nM in assay [1], 726 nM in assay [2] (setting [4]) and over 5000 nM in assay [3].

Regarding `CC(C)CCNCc1ccc(Sc2ccc(C(N)=O)cn2)cc1` [Example 13, 6-{4-[(3-Methyl-butylamino)-methyl]-phenylsulfanyl}-nicotinamide], the Ki in assay [1] came to 3520 nM; in assay [2] (setting [4]), 563 nM; in assay [3], 2440 nM.

On to `NC(=O)c1ccc(S(=O)(=O)c2ccc(CNCCc3ccccc3)cc2)cc1` [Example 14, 4-[4-(Phenethylamino-methyl)-benzenesulfonyl]-benzamide], for which the inhibition constant (Ki) in assay [1] was determined as 714 nM; in assay [2] (setting [4]), 86.4 nM; in assay [3], 1020 nM.

For the molecule `NC(=O)c1ccc([S+]([O-])c2ccc(CNCCc3ccccc3)cc2)cc1` (stereo not shown) [Example 15, 4-[4-(Phenethylamino-methyl)-benzenesulfinyl]-benzamide], the Ki worked out at 1820 nM in assay [1], 292 nM in assay [2] (setting [4]) and 654 nM in assay [3].

Take `NCCc1ccc(Nc2ccc(C(N)=O)cn2)cc1` [Example 16, 6-[4-(2-Amino-ethyl)-phenylamino]-nicotinamide]: the Ki in assay [1] amounted to 270 nM; in assay [2] (Receptor Binding (Ki, nM) Mu), 45.4 nM; in assay [3] it was 1020 nM.

Consider `NC(=O)c1ccc(Nc2ccc(CCNCc3ccccc3)cc2)nc1` [Example 17, 6-[4-(2-Benzylamino-ethyl)-phenylamino]-nicotinamide], for which the Ki is over 5000 nM in assay [1], 1350 nM in assay [2] (setting [4]) and 761 nM in assay [3].

For the molecule `NC(=O)c1ccc(Nc2ccc(CCNCC3CCCCC3)cc2)nc1` [Example 18, 6-{4-[2-(Cyclohexylmethyl-amino)-ethyl]-phenylamino}-nicotinamide], the Ki was found to be 278 nM in assay [1], 48.7 nM in assay [2] (setting [4]) and 466 nM in assay [3].

`NC(=O)c1ccc(Nc2ccc(CNCc3ccccc3)cc2)nc1` [Example 20, 6-[4-(Benzylamino-methyl)-phenylamino]-nicotinamide]: the Ki stood at 537 nM in assay [1], 73.2 nM in assay [2] (setting [4]) and 402 nM in assay [3].

With `NC(=O)c1ccc(Nc2ccc(CNCC3CCCCC3)cc2)nc1` [Example 21, 6-{4-[(Cyclohexylmethyl-amino)-methyl]-phenylamino}-nicotinamide], the Ki in assay [1] is over 5000 nM; in assay [2] (setting [4]) it was over 3000 nM; in assay [3] it was over 4000 nM.

Regarding `NC(=O)c1ccc(Nc2ccc(CNCCc3ccccc3)cc2)nc1` [Example 22, 6-[4-(Phenethylamino-methyl)-phenylamino]-nicotinamide], the results for the Ki in assay [1], in assay [2] (setting [4]) and in assay [3] were over 5000 nM, over 3000 nM and over 4000 nM, respectively.

In the case of `CC(=O)Nc1ccc(Oc2ccc(CCNC(=O)OC(C)(C)C)cc2)cc1` [Example 24, {2-[4-(4-Acetylamino-phenoxy)-phenyl]-ethyl}-carbamic acid tert-butyl ester], the Ki worked out at 4020 nM in assay [1], 198 nM in assay [2] (setting [4]) and 2670 nM in assay [3].

As for `CC(=O)Nc1ccc(Oc2ccc(CCN)cc2)cc1` [Example 25, N-{4-[4-(2-Amino-ethyl)-phenoxy]-phenyl}-acetamide], the Ki in assay [1] came out at 2510 nM; in assay [2] (Receptor Binding (Ki, nM) Mu), 67.5 nM; in assay [3], 3970 nM.

In the case of `CCCCCCNCCc1ccc(Oc2ccc(NC(C)=O)cc2)cc1` [Example 27, N-{4-[4-(2-Hexylamino-ethyl)-phenoxy]-phenyl}-acetamide], in assay [2] (setting [4]), the Ki is 200 nM and 64.3 nM.

Turning to `CC(=O)Nc1ccc(Oc2ccc(CCNCc3cccs3)cc2)cc1` [Example 28, N-[4-(4-{2-[(Thiophen-2-ylmethyl)-amino]-ethyl}-phenoxy)-phenyl]-acetamide], the Ki was 469 nM in assay [1], 26.9 nM in assay [2] (setting [4]) and 150 nM in assay [3].

`CC(=O)Nc1ccc(Oc2ccc(CCNCCCc3ccccc3)cc2)cc1` [Example 29, N-(4-{4-[2-(3-Phenyl-propylamino)-ethyl]-phenoxy}-phenyl)-acetamide]: the Ki in assay [1] amounted to 62.5 nM; in assay [2] (setting [4]), 5.06 nM; in assay [3] it was 731 nM.

Regarding `CC(=O)Nc1ccc(Oc2ccc(CCNCCC3CCCCC3)cc2)cc1` [Example 30, N-(4-{4-[2-(2-Cyclohexyl-ethylamino)-ethyl]-phenoxy}-phenyl)-acetamide], the figures for the Ki in assay [1], in assay [2] (setting [4]) and in assay [3] were 260 nM, 18 nM and 163 nM, respectively.

For `CC(=O)Nc1ccc(Oc2ccc(CCNCc3ccco3)cc2)cc1` [Example 36, N-[4-(4-{2-[(Furan-2-ylmethyl)-amino]-ethyl}-phenoxy)-phenyl]-acetamide], the Ki in assay [1] was over 5000 nM; in assay [2] (setting [4]), over 2500 nM; in assay [3], over 4000 nM.

With `CC(=O)Nc1ccc(Oc2ccc(CCNCc3cccc(Cl)c3)cc2)cc1` [Example 37, N-(4-{4-[2-(3-Chloro-benzylamino)-ethyl]-phenoxy}-phenyl)-acetamide], the Ki in assay [1] was over 5000 nM; in assay [2] (setting [4]), 1750 nM; in assay [3], over 4000 nM.

Turning to `CC(=O)Nc1ccc(Oc2ccc(CCNCC(C)C)cc2)cc1` [Example 38, N-{4-[4-(2-Isobutylamino-ethyl)-phenoxy]-phenyl}-acetamide], the Ki in assay [1] is over 5000 nM; in assay [2] (setting [4]) it was 1720 nM; in assay [3] it was over 4000 nM.

Consider `CC(=O)Nc1ccc(Oc2ccc(CCNC3CCCCC3)cc2)cc1` [Example 39, N-{4-[4-(2-Cyclohexylamino-ethyl)-phenoxy]-phenyl}-acetamide], for which the Ki in assay [1] is over 5000 nM; in assay [2] (setting [4]), over 2500 nM; in assay [3], over 4000 nM.

In the case of `CC(=O)Nc1ccc(Oc2ccc(CCNCc3ccccc3C)cc2)cc1` [Example 40, N-(4-{4-[2-(2-Methyl-benzylamino)-ethyl]-phenoxy}-phenyl)-acetamide], the Ki in assay [1] is over 5000 nM; in assay [2] (setting [4]) it was 912 nM; in assay [3], over 4000 nM.
